Assay results: patent US20120196854A1, “PHARMACEUTICAL COMPOSITION COMPRISING AROMATIC HETEROCYCLIC COMPOUND” (Kyowa Hakko Kirin Co., Ltd., priority 2009, published 2012)

These compounds were tested against T1, human H-PGDS (Homo sapiens, UniProt O60760) (assay: H-PGDS inhibitory activity (Prostaglandin D Synthase Inhibitor Screening Assay Kit)). Conditions: at a concentration of 1 μmol/L; read-out: H-PGDS inhibitory rate.
T1 construct: purchased Cayman Chemical 10006593
Type: biochemical
Procedure: The H-PGDS inhibitory activity of Compound (I) was calculated according to the following protocol attached to Prostaglandin D Synthase Inhibitor Screening Assay Kit (Cat. No. 10006595, Cayman Chemical, Ann Arbor, Mich., USA).
(§1) First, to a 96-well round-bottom plate (Cat. No. 3882-096, Asahi Techno Glass, Chiba), 60 μL/well of an enzyme assay buffer (0.1 mol/L Tris-HCl, pH 8.0), 10 μL/well of a human H-PGDS [Cat. No. 10006593 (human), Cayman Chemical, Ann Arbor, Mich., USA] at a final concentration of 0.125 μg/mL, 10 μL/well of reduced glutathione at a final concentration of 1 mmol/L, and 10 μL/well of Compound (I) diluted with the enzyme assay buffer were added and lightly mixed. The plate was allowed to stand at room temperature for 10 minutes, and then 10 μL/well of prostaglandin H2(PGH2) (Cat. No. 17020, Cayman Chemical) at a final concentration of 50 μmol/L was added thereto to start enzyme reaction. The reaction was allowed to proceed with mixing by a plate mixer for 1 minute. After the enzyme reaction, 10 μL/well of a 4 mg/mL FeCl2-HCl solution prepared by dissolving FeCl2 in 1 mol/L hydrochloric acid was added to stop the reaction and reduce PGH2 simultaneously. The enzyme reaction solution (100 μL/well) was transferred to a 96-well UV-Star half area plate (Cat. No. 675801, Greiner, Frickenhausen, Germany), and measured for absorbance at 232 nm using a microplate reader Power Wave (BioTek Instrument Inc., Winooski, Vt., USA).
The H-PGDS inhibitory activity (inhibitory rate) of Compound (I) was calculated by the following formula.
The H-PGDS inhibitory activity of Compound 133 was calculated according to the following protocol attached to Prostaglandin D Synthase Inhibitor Screening Assay Kit (Cat. No. 10006595, Cayman Chemical, Ann Arbor, Mich., USA).
as §1, with “133” for “(I)”
The H-PGDS inhibitory activity (inhibitory rate) of Compound 133 was calculated according to the method in Test Example 1.

T1 sequence (O60760 whole entry): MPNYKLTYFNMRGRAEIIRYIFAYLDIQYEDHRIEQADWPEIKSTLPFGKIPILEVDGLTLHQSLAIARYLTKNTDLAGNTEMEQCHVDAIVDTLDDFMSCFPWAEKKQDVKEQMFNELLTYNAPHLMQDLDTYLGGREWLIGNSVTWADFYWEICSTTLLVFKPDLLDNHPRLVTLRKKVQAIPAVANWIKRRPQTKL

| SMILES | inhibition at 1 µM [%] |
| --- | --- |
| CS(=O)(=O)Nc1ccc(-c2cc(C(=O)O)c3c(ccc4nn(-c5ccccc5)nc43)n2)cc1 [Compound 6, 7-(4-methanesulfonylaminophenyl)-2-phenyl-2H[1,2,3]triazolo[4,5-f]quinoline-9-carboxylic acid] | ≥ 80 |
| O=C(O)c1cc(-c2ccc(NS(=O)(=O)c3ccccc3)cc2)nc2ccc3nn(-c4ccccc4)nc3c12 [Compound 15, 7-(4-benzenesulfonylaminophenyl)-2-phenyl-2H[1,2,3]triazolo[4,5-f]quinoline-9-carboxylic acid] | ≥ 80 |
| O=C(NS(=O)(=O)c1ccccc1)c1cccc(-c2cc(C(=O)O)c3c(ccc4nn(-c5ccccc5)nc43)n2)c1 [Compound 26, 7-(3-benzenesulfonylaminocarbonylphenyl)-2-phenyl-2H[1,2,3]triazolo[4,5-f]quinoline-9-carboxylic acid] | ≥ 80 |
| O=C(NS(=O)(=O)c1ccccc1)c1ccc(-c2cc(C(=O)O)c3c(ccc4nn(-c5ccccc5)nc43)n2)cc1 [Compound 28, 7-(4-benzenesulfonylaminocarbonylphenyl)-2-phenyl-2H[1,2,3]triazolo[4,5-f]quinoline-9-carboxylic acid] | ≥ 80 |
| O=C(O)c1cc(-c2ccc(NS(=O)(=O)c3ccccc3)cc2)nc2ccc3nc(-c4ccccc4)oc3c12 [Compound 53, 7-(4-benzenesulfonylaminophenyl)-2-phenyloxazolo[5,4-f]-quinoline-9-carboxylic acid] | ≥ 80 |
| Cc1cccc(-n2nc3ccc4nc(-c5ccco5)cc(C(=O)O)c4c3n2)c1 [Compound 102, 7-(furan-2-yl)-2-(3-methylphenyl)-2H-[1,2,3]triazolo[4,5-f]quinoline-9-carboxylic acid] | ≥ 80 |

Other lines, results leading:

| inhibition at 1 µM [%] | SMILES |
| --- | --- |
| ≥ 80 | CS(=O)(=O)NC(=O)c1ccc(-c2cc(C(=O)O)c3c(ccc4nn(-c5ccccc5)nc43)n2)cc1 [Compound 13, 7-(4-methanesulfonylaminocarbonylphenyl)-2-phenyl-2H[1,2,3]triazolo[4,5-f]quinoline-9-carboxylic acid] |
| ≥ 80 | CS(=O)(=O)NC(=O)c1cccc(-c2cc(C(=O)O)c3c(ccc4nn(-c5ccccc5)nc43)n2)c1 [Compound 17, 7-(3-methanesulfonylaminocarbonylphenyl)-2-phenyl-2H[1,2,3]triazolo[4,5-f]quinoline-9-carboxylic acid] |
| ≥ 80 | O=C(O)c1cc(-c2cc(C(=O)O)c3c(ccc4nn(-c5cccc(F)c5)nc43)n2)c[nH]1 [Compound 76, 7-(5-carboxy-1H-pyrrol-3-yl)-2-(3-fluorophenyl)-2H-[1,2,3]-triazolo[4,5-f]quinoline-9-carboxylic acid] |
| ≥ 80 | O=C(O)c1cc(-c2cnn(Cc3ccccc3)c2)nc2ccc3nn(-c4cccc(F)c4)nc3c12 [Compound 116, 7-(1-benzyl-1H-pyrazol-4-yl)-2-(3-fluorophenyl)-2H-[1,2,3]-triazolo[4,5-f]quinoline-9-carboxylic acid] |

The compounds below were run on PGD2 production in mouse ear (assay: Inhibitory effect on PGD2 production in mouse ear caused by allergic reaction). Conditions: 3 mg/kg orally, 1 hour before inducing antigen-antibody reaction; BALB/c mice.
Type: in vivo
Procedure: A test of PGD2 production in the mouse ear caused by allergic reaction was conducted according to the evaluation method of passive cutaneous anaphylaxis in the mouse ear by Inagaki et al. (Int.Arch.AllergyAppl. Immunol., 1988, 86 (3), 325-30) with some alteration. […]
One hour after the induction of antigen-antibody reaction, the mice were killed by cervical dislocation and the ears were cut off with scissors. […] The harvested pieces of ear tissue were immediately frozen in liquid nitrogen, and preserved at −80° C. until measurement of the quantity of PGD2.
The quantity of PGD2 was determined in the following manner. […]

| SMILES | inhibition of PGD2 production in mouse ear caused by allergic reaction [%] |
| --- | --- |
| Cc1cccc(-n2nc3ccc4nc(-c5ccco5)cc(C(=O)O)c4c3n2)c1 [Compound 102, 7-(furan-2-yl)-2-(3-methylphenyl)-2H-[1,2,3]triazolo[4,5-f]quinoline-9-carboxylic acid] | 84 |
